Source: patent US20200147117A1, “COMBINATION CANCER THERAPY” (BIOSIGHT LTD., priority 2017, published 2020)
Where two headings read alike, the source gives them in different places.

Assays:
[1] = tested on: U937 human hematological cancer cells; test: Proliferation and survival of U937 cells, PI staining / FACS, 72 hours; format: cell-based
Protocol: U937 human hematological cancer cells were cultured in RPMI supplemented with 10% FCS. […] Azacitidine (AZA) was added to the cell cultures at 5 different concentrations: 0, 100, 250, 1000, 5000 nM. […] All groups were analyzed in triplicates. […] The percentage of inhibition was calculated.

U937 cells = test: Activity of BST-236 on U937 cells, 48 hr, 10% FCS (Table 3); format: cell-based, human
[2] = tested on: Molt-4 human leukemia cell line; test: Molt-4 cell proliferation, MTT assay, 72 hr; format: cell-based
Protocol: Molt-4 human leukemia cell line was obtained from ATCC. The cells were grown in RPMI medium containing 10% FBS and 1% glutamine Cells were seeded in 96-well plates, 50,000 cells/ml, 0.2 ml per well. Test substances were diluted in PBS and added in final concentrations of 0.1 nM to 10 μM, in a volume of 20 μl. The study was conducted in triplicates. PBS was used as a control. Plates were incubated for 72 hr at 37° C. with 5% CO2. At the end of the treatment period, a MTT assay using the MTT reagent [3-(4,5-dimethylthiazol-2-yl)-2,5-diphenyltetrazolium bromide] was performed. MTT was added to each well at a concentration of 5 mg/ml in a volume of 0.02 ml. Plates were incubated at 37° C. for 3 hours. The plates were centrifuged at 3500 rpm for 5 minutes and the supernatant was aspirated. The pellets which contained MTT crystals were each dissolved in 0.2 ml DMSO. Absorbance was determined using ELISA reader at a wavelength of 570 nm.

Molt-4 cells = test: Activity of Asp-Cytarabine/BST-236 on Molt-4 cells, 48 hr, 10% FCS (Table 5); format: cell-based, human
U937 leukemia cells = test: Animal model of leukemia: NSG mice injected IV with U937 cells; format: in vivo, NOD scid gamma (NSG) mice; settings: for Spleen size / weight compared to the control mice: s.c. daily, FIG. 4
Protocol: The effect of BST-236 in combination with azacytidine on the survival of U937 leukemia cells in vivo was next examined NOD scid gamma (NSG) mice were irradiated with 200 rad, 24 hours before injection with U937 cells. On Day 0, mice (4-5 animals per group), were injected intravenously (IV) with 7×10^6 U937 cells in a total volume of 200 μL PBS. On Days 16-22 (7 days, first study) or 13-18 (6 days, second study), mice were daily injected subcutaneously (s.c.) with BST-236 (5 mg/mouse; ˜250 mg/kg), azacytidine (designated AZA; 6 mg/kg), or BST-236 (5 mg/mouse; ˜250 mg/kg) and AZA (6 mg/kg). Twenty-four hours after the last injection, mice were sacrificed, and spleen, blood, and bone marrow were analyzed for mouse and human CD45^+ cells using fluorescence-activated cell sorting (FACS).
Given that finding, experiments will be performed using even lower doses of BST-236 to evaluate synergistic activity with, e.g., AZA. It is, for example, expected that 20 mg/kg BST-236 will be efficacious. Accordingly, in a particular embodiment, NSG mice will be dosed with 20 mg/kg BST-236 alone, 6 mg/kg AZA alone, or a combination of 20 mg/kg BST-236 and 6 mg/kg AZA to investigate synergistic activity with this dosing regimen. It is understood that synergistic activity may also be observed at lower doses of AZA in combination with 20 mg/kg BST-236.

[3] = PK analysis from Phase I/II studies after infusion; format: in vivo
Excerpt: Accordingly, synergistic interactions may be observed within […] administration of BST-236.

[4] = BST-236 5 mg/mouse, AZA 6 mg/kg

NC(CC(=O)Nc1ccn([C@@H]2O[C@H](CO)C(O)C2O)c(=O)n1)C(=O)O (stereo partly shown) [Asp-Cytarabine]
% inhibition (growth inhibition of U937 cells) ([1]; BST236 250 nM alone): 19.1% | Activity on U937 cells (count) (U937 cells; 1 nM, 48 hr, 10% FCS): 16958 | Activity on U937 cells (count) (U937 cells; 10 nM, 48 hr, 10% FCS): 16994 | Activity on U937 cells (count) (U937 cells; 50 nM, 48 hr, 10% FCS): 15769.67 | Activity on U937 cells (count) (U937 cells; 100 nM, 48 hr, 10% FCS): 15228.33333 | Activity on U937 cells (count) (U937 cells; 250 nM, 48 hr, 10% FCS): 14819.67 | Activity on U937 cells (count) (U937 cells; 1000 nM, 48 hr, 10% FCS): 6185.667 | Activity on U937 cells (count) (U937 cells; 5000 nM, 48 hr, 10% FCS): 2116 | inhibition at 0.001 µM (U937 cells; Homo sapiens, U-937, 1 nM, 48 hr, 10% FCS, read-out: Activity on U937 cells (inhibition relative to 0)): -2.27% | inhibition at 0.01 µM (U937 cells; Homo sapiens, U-937, 10 nM, 48 hr, 10% FCS, read-out: Activity on U937 cells (inhibition relative to 0)): -2.49% | inhibition at 0.05 µM (U937 cells; Homo sapiens, U-937, 50 nM, 48 hr, 10% FCS, read-out: Activity on U937 cells (inhibition relative to 0)): 4.9% | inhibition at 0.1 µM (U937 cells; Homo sapiens, U-937, 100 nM, 48 hr, 10% FCS, read-out: Activity on U937 cells (inhibition relative to 0)): 8.16% | inhibition at 0.25 µM (U937 cells; Homo sapiens, U-937, 250 nM Asp-Cytarabine administered alone, read-out: inhibition of U937 cells): < 20% | inhibition at 0.25 µM (U937 cells; Homo sapiens, U-937, 250 nM, 48 hr, 10% FCS, read-out: Activity on U937 cells (inhibition relative to 0)): 10.6% | inhibition at 1 µM (U937 cells; Homo sapiens, U-937, 1000 nM, 48 hr, 10% FCS, read-out: Activity on U937 cells (inhibition relative to 0)): 62.7% | inhibition at 5 µM (U937 cells; Homo sapiens, U-937, 5000 nM, 48 hr, 10% FCS, read-out: Activity on U937 cells (inhibition relative to 0)): 87.2% | IC50 [2]: 47 nM | Activity on Molt-4 cells (count) (Molt-4 cells; 1 nM, 48 hr, 10% FCS): 18778.00 | Activity on Molt-4 cells (count) (Molt-4 cells; 10 nM, 48 hr, 10% FCS): 17759.00 | Activity on Molt-4 cells (count) (Molt-4 cells; 50 nM, 48 hr, 10% FCS): 14258.67 | Activity on Molt-4 cells (count) (Molt-4 cells; 100 nM, 48 hr, 10% FCS): 12006.67 | Activity on Molt-4 cells (count) (Molt-4 cells; 250 nM, 48 hr, 10% FCS): 9572.00 | Activity on Molt-4 cells (count) (Molt-4 cells; 1000 nM, 48 hr, 10% FCS): 3156.33 | Activity on Molt-4 cells (count) (Molt-4 cells; 5000 nM, 48 hr, 10% FCS): 2037.33 | inhibition at 0.001 µM (Molt-4 cells; Homo sapiens, MOLT-4, 1 nM, 48 hr, 10% FCS, read-out: Activity on Molt-4 cells (inhibition relative to 0)): 1.88% | inhibition at 0.01 µM (Molt-4 cells; Homo sapiens, MOLT-4, 10 nM Asp-Cytarabine, read-out: inhibition of Molt-4 cells): < 10% | inhibition at 0.01 µM (Molt-4 cells; Homo sapiens, MOLT-4, 10 nM, 48 hr, 10% FCS, read-out: Activity on Molt-4 cells (inhibition relative to 0)): 7.21% | inhibition at 0.05 µM (Molt-4 cells; Homo sapiens, MOLT-4, 50 nM, 48 hr, 10% FCS, read-out: Activity on Molt-4 cells (inhibition relative to 0)): 25.5% | inhibition at 0.1 µM (Molt-4 cells; Homo sapiens, MOLT-4, 100 nM, 48 hr, 10% FCS, read-out: Activity on Molt-4 cells (inhibition relative to 0)): 37.3% | inhibition at 0.25 µM (Molt-4 cells; Homo sapiens, MOLT-4, 250 nM, 48 hr, 10% FCS, read-out: Activity on Molt-4 cells (inhibition relative to 0)): 50% | inhibition at 1 µM (Molt-4 cells; Homo sapiens, MOLT-4, 1000 nM, 48 hr, 10% FCS, read-out: Activity on Molt-4 cells (inhibition relative to 0)): 83.5% | inhibition at 5 µM (Molt-4 cells; Homo sapiens, MOLT-4, 5000 nM, 48 hr, 10% FCS, read-out: Activity on Molt-4 cells (inhibition relative to 0)): 89.3% | Spleen size / weight compared to the control mice (U937 leukemia cells; [4]): reduced spleen size | Animals that survived until the scheduled sacrifice (U937 leukemia cells; first study, s.c. daily Days 16-22, sacrifice on Day 23, BST-236 5 mg/mouse, AZA 6 mg/kg): 4/4 | Concentration decline following infusion cessation ([3]; Phase I/II studies): rapidly declined in an apparent biphasic manner | Concentration relative to the peak ([3]; at 6-10 hours from the completion of the infusion): ≤ 5 % of the peak

Nc1ncn([C@@H]2O[C@H](CO)[C@@H](O)[C@H]2O)c(=O)n1 [Azacitidine]
% inhibition (growth inhibition of U937 cells) ([1]; AZA 100 nM alone): 1.68% | % inhibition (growth inhibition of U937 cells) ([1]; AZA 250 nM alone): −3.60% | % inhibition (growth inhibition of U937 cells) ([1]; AZA 1000 nM alone): 0.60% | % inhibition (growth inhibition of U937 cells) ([1]; AZA 5000 nM alone): 4.30% | IC50 [2]: 2110 nM | Spleen size / weight compared to the control mice (U937 leukemia cells; [4]): reduced spleen size | Animals that died before the scheduled sacrifice (U937 leukemia cells; first study, AZA 6 mg/kg s.c. daily Days 16-22, sacrifice on Day 23): 1/4
